In US20050124589A1, “New use, pharmaceutical preparations as well as a process for their production” (priority 2003, published 2005):

What was measured:
[1] = cited from earlier work
[2] = Physical storage stability of aqueous Ifosfamide concentrates with Mesna as solubility-enhancing agent; assay type: physicochemical; settings: Mesna as solubility-enhancing agent in Ifosfamide concentrates
Protocol: The ratios refer to the proportions by weight of the substances in the solution. The solutions are homogenized, sterilized by filtration and filled under aseptic conditions. Production is carried out under nitrogen. These solutions can also be lyophilized in order to obtain a longer storage life of the pharmaceutical preparation. In addition to the auxiliary agents that are set forth in the examples, the solution can contain also further substances, e.g. sodium chloride, Mannitol, lactose, polyethylenglycol, ethanol, glucose, disaccharide, cyclodextrine.
In the manufacture, 90% of the Water for Injection is cooled to about 5° C. to 10° C., to which is dissolved the phosphate buffer; the Mesna is subsequently added and is homogeneously dissolved. […] The solution so obtained is brought to the specified weight with the cooled Water for Injection, sterile-filtered and filled in injection vials under aseptic conditions. Sterilization and filling are not carried out under cooling.
The making of Examples 4, 5 and 6 is carried out analogously to the description of Example 1.

SMILES	solubility in water (saturation concentration) ([1]; water, room temperature)	solubility of Ifosfamide lowered by addition of auxiliary agents ([1]; with auxiliary agents added)	physical stabilization of Ifosfamide solution [2]
O=P1(NCCCl)OCCCN1CCCl (stereo not drawn) [Ifosfamide, 2-(chlorethylamino)-3-(2-chlorethyl)-tetrahydro-2H-1,3,2-oxazaphosphorin-2-oxide]	about 140 mg/mL	under 10 % (wt/vol)	–
O=S(=O)(O)CCS [Mesna, mercaptoethane sulfonate-sodium]	–	–	prevents crystallization
